From patent publication US20240207427A1, “SELECTIVE DRUG RELEASE FROM INTERNALIZED CONJUGATES OF BIOLOGICALLY ACTIVE COMPOUNDS” (priority 2021, published 2024)
Like-named read-outs stand apart in the source and are kept apart here.

Assays:
[1] = tested on: HPAFII cell line (Ag1 upregulated); test: In vitro cytotoxicity of Ag1 ADCs, HPAFII cells; format: cell-based; settings: in words, Tables 5a and 5b
Experimental: In vitro cytotoxicity. The cytotoxicity of a tripeptide-based Antibody Drug Conjugate was measured by a cell proliferation assay employing the protocol described in Promega Corp. Technical Bulletin TB288; and Mendoza et al., 2002, Cancer Res. 62:5485-5488), the methods of which are specifically incorporated by reference herein. Briefly, an aliquot of 40 μl of cell culture containing about 400 cells in medium is deposited in each well of a 384-well, opaque-walled plate. A 10 μL aliquot of free drug or Ligand-Drug Conjugate is added to the experimental wells and incubated for 96 h and are then equilibrated to room temperature for approximately 30 minutes whereupon a volume of CellTiter-Glo™ reagent equal to the volume of cell culture medium present in each well is added. The contents are mixed for 2 minutes on an orbital shaker to induce cell lysis and the plate is incubated at room temperature for 10 minutes to stabilize the luminescence signal for recordation.
The italicized values in Tables 5, 5a, and 5b indicate the percentage of cells remaining after 96 hr incubation at the maximum concentration of drug added. For convenience the numbering for the library members of Tables 5 and 5A are retained for the corresponding Drug linker compounds that are incorporated into the ADC of Tables 5, 5a, and 5b.

[2] = tested on: h00-37, non-binding control antibody h00 conjugated with mp-val-cit-PABC-MMAE (compound 37)
[3] = tested on: h00-5, non-binding control antibody h00 conjugated with mp-D-Leu-Ala-Glu-PABC-MMAE (Drug Linker compound 5)
[4] = tested on: h00-7, non-binding control antibody h00 conjugated with mp-Leu-Ala-Glu-PABC-MMAE (Drug Linker compound 7)
neutrophil elastase = target: T1, neutrophil elastase (Homo sapiens, UniProt P08246); test: Neutrophil elastase assay of ADCs; format: biochemical; settings: 8-load ADC, 37 C, 3 h, pH 7.5, FIG. 6A
T1 sequence (P08246 30-267): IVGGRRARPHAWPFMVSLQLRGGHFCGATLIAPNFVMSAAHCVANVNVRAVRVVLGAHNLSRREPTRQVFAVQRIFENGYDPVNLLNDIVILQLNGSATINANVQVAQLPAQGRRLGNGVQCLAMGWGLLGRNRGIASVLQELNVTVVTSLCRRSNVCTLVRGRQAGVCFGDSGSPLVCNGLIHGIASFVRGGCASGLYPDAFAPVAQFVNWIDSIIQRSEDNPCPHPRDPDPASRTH
Experimental: To a mixture of 8-load ADC (5 ug), buffer (100 mM tris, 75 mM NaCl, pH 7.5; final concentration), and neutrophil elastase (100 ng) was added water to 20 uL. The reaction was incubated at 37 C for 3 h and then immediately analyzed by a QToF mass spectrometer.

[5] = tested on: non-small-cell lung cancer cells (Calu1); test: In vitro potency (CellTiter-Glo, 96 h), Calu1; format: cell-based; settings: Homo sapiens, Calu-1, 96 h, read-out: Calu1 IC50
Procedure, shortened: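 Log-phase cells were seeded for 24 h in RPMI 1640 with 20% FBS, then exposed to serially diluted antibody-drug conjugates or free camptothecin drug for 4 days at 37 °C. Growth inhibition was read by luminescence, and IC50 values were reported in ng/mL and nmol/L.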

[6] = tested on: acute myeloid leukemia cells (MOLM-13); test: In vitro potency (CellTiter-Glo, 96 h), MOLM-13; format: cell-based; settings: Homo sapiens, MOLM-13, 96 h
Procedure, shortened: (§1)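 Four-day continuous exposure at 37 °C to serially diluted ADC or free camptothecin payload, in RPMI 1640 with 20% FBS after 24 h pre-plating. Luminescent signal gave IC50 (ng/mL; nmol/L).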

[7] = tested on: renal carcinoma cells (786-O); test: In vitro potency (CellTiter-Glo, 96 h), 786-O; format: cell-based; settings: Homo sapiens, 786-0, 96 h, read-out: IC50 786-O, camptothecin drugs, Table 13; CellTiter-Glo after 96 h exposure
Procedure, shortened: as §1

[8] = tested on: pancreatic cancer cells (BxPC3); test: In vitro potency (CellTiter-Glo, 96 h), BxPC3; format: cell-based; settings: Homo sapiens, BXPC-3, 96 h, read-out: IC50 BxPC3, camptothecin drugs, Table 13; CellTiter-Glo after 96 h exposure
Procedure, shortened: as §1

[9] = tested on: Hodgkin's lymphoma cells (L540cy); test: In vitro potency (CellTiter-Glo, 96 h), L540cy; format: cell-based; settings: read-out: IC50 L540cy, camptothecin drugs, Table 13, CellTiter-Glo after 96 h exposure
Procedure, shortened: as §1

[10] = tested on: B-lymphocyte cancer cells (SU-DHL4); test: In vitro potency (CellTiter-Glo, 96 h), SU-DHL-4; format: cell-based; settings: Homo sapiens, SU-DHL-4, 96 h, read-out: IC50 SU-DHL-4, camptothecin drugs, Table 13; CellTiter-Glo after 96 h exposure
Procedure, shortened: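 RPMI 1640/20% FBS cultures, log phase, plated 24 h → ADC titration → 4 d, 37 °C → luminescence → IC50, ng/mL.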

[11] = tested on: multiple myeloma cells (MM.1R); test: In vitro potency (CellTiter-Glo, 96 h), MM.1R; format: cell-based; settings: camptothecin drugs, Table 13, CellTiter-Glo after 96 h exposure
Experimental: (§2) In vitro potency was assessed on multiple cancer cell lines. All cell lines were authenticated by STR profiling at IDEXX Bioresearch and cultured for no more than 2 months after resuscitation. Cells cultured in log-phase growth were seeded for 24 hours in 96-well plates containing […] RPMI 1640 supplemented with 20% FBS. Following addition of test articles, cells were incubated with test articles for 4 days at 37 0° C. After 96 hours, growth inhibition was assessed by CellTiterGlo® (Promega, Madison, WI) and luminescence was measured on a plate reader.
(§3) Cell viability was determined by CellTiter-Glo staining after 96 h exposure to the compound. ND=Not Determined. The cancer cell lines tested are renal carcinoma cells (786-0), melanoma cells (A2058), pancreatic cancer cells (BxPC3), non-small-cell lung cancer cells (Calu1), anaplastic large cell lymphoma cells (DEL, DELBVR, Karpas299), Hodgkin's lymphoma cells (L540cy), (Ls 174T), breast cancer cells (MDA-MB-231), acute myeloid leukemia cells (MOLM-13), B-lymphocyte cancer cells (SU-DHL4), multiple myeloma cells (MM.1R), (U266), and melanoma cells (SK-MEL-5).
as §2, with “FBS. Serial dilutions of antibody-drug conjugates in cell culture media were prepared at 4× working concentrations, and 50 μL of each dilution was added to the 96-well plates.” for “FBS.”, “37°” for “37 0°”
(§4) In vitro potency was assessed on multiple cancer cell lines. […] After 96 hours, growth inhibition was assessed by CellTiterGlo® (Promega, Madison, WI) and luminescence was measured on a plate reader.

U266 cells = test: In vitro potency (CellTiter-Glo, 96 h), U266; format: cell-based; settings: Homo sapiens, U-266; camptothecin drugs, Table 13; CellTiter-Glo after 96 h exposure
Experimental: as §2, §3
as §2, with “FBS. Serial dilutions of antibody-drug conjugates in cell culture media were prepared at 4× working concentrations, and 50 μL of each dilution was added to the 96-well plates.” for “FBS.”, “37°” for “37 0°”
as §4

[12] = tested on: melanoma cells (SK-MEL-5); test: In vitro potency (CellTiter-Glo, 96 h), SK-MEL-5; format: cell-based; settings: Homo sapiens, camptothecin drugs, Table 13, CellTiter-Glo after 96 h exposure
Experimental: as §2, §3
as §2, with “FBS. Serial dilutions of antibody-drug conjugates in cell culture media were prepared at 4× working concentrations, and 50 μL of each dilution was added to the 96-well plates.” for “FBS.”, “37°” for “37 0°”
as §4

[13] = read-out: IC50 MOLM-13, camptothecin drugs, Table 13, CellTiter-Glo after 96 h exposure

Compound | IC50 [7] | IC50 [8] | IC50 [9] | IC50 [6, 13] | IC50 [10] | IC50 [11] | IC50 (U266 cells) | IC50 [12] | also measured
CC[C@@]1(O)C(=O)OCc2c1cc1n(c2=O)Cc2c-1nc1cc3c(cc1c2CN(C)CCCN)OCO3 [Compound 8, (5S)-14-[[3-aminopropyl(methyl)amino]methyl]-5-ethyl-S-hydroxy-7,18,20-trioxa-11,24-diazahexacyclo [11.11.0.02,11.04,9.015,23.017,21]tetracosa-1(13),2,4(9),14,16,21,23-heptaene-6,10-dione; 2,2,2-trifluoroacetic acid] |  |  |  |  |  |  |  |  | cytotoxicity compared with comparator dipeptide-based ADC (1) [1]: less cytotoxic; efficacy compared with comparator dipeptide-based ADC (1) [1]: similarly efficacious
Cathepsin B |  |  |  |  |  |  |  |  | percentage of drug cleaved from the heavy chain (QToF mass spectrometry after 3 h at 37 C, pH 4.5) [2]: percentage of drug cleaved from the heavy chain of non-targeted ADCs 5 and 7 in vitro by Cathepsin B is similar to that found for non-targeted ADC 37; percentage of drug cleaved from the heavy chain (QToF mass spectrometry after 3 h at 37 C, pH 4.5) [3]: percentage of drug cleaved from the heavy chain of non-targeted ADCs 5 and 7 in vitro by Cathepsin B is similar to that found for non-targeted ADC 37; percentage of drug cleaved from the heavy chain (QToF mass spectrometry after 3 h at 37 C, pH 4.5) [4]: percentage of drug cleaved from the heavy chain of non-targeted ADCs 5 and 7 in vitro by Cathepsin B is similar to that found for non-targeted ADC 37
neutrophil elastase |  |  |  |  |  |  |  |  | percentage of drug cleaved from the heavy chain (QToF mass spectrometry after 3 h at 37 C) [2]: percentage of drug cleaved from the heavy chain of non-targeted ADC 5 in vitro by neutrophil elastase is lower than that found for non-targeted ADC 37; percentage of drug cleaved from the heavy chain (QToF mass spectrometry after 3 h at 37 C) [3]: no proteolosis of h00-5 by neutrophil elastase was observed; percentage of drug cleaved from the heavy chain (QToF mass spectrometry after 3 h at 37 C) [4]: the h00-5 conjugate ... has its heavy chain cleaved by neutrophil elastase to a significantly lower extent than h00-7
CC[C@@]1(O)C(=O)OCc2c1cc1n(c2=O)Cc2c-1nc1cc3c(cc1c2CN)CC=C3 [Compound 5] |  |  |  |  |  |  |  |  | percentage of drug cleaved from the heavy chain by neutrophil elastase (neutrophil elastase): lower than that found for non-targeted ADC 37; IC50 [5]: 129 nM; IC50 ([6]; read-out: MOLM-13 IC50, Table 28, CPT free drugs, acute myeloid leukemia cells MOLM-13, 96 h, CellTiter-Glo): 258 nM
CC[C@@]1(O)C(=O)OCc2c1cc1n(c2=O)Cc2c-1nc1cc3c(cc1c2CNc1ccccc1N)OCO3 [Compound 7ac] | 2 nM | 5 nM | 2 nM | 1 nM | 1 nM | 2 nM | 8 nM | 4 nM | 
CC[C@@]1(O)C(=O)OCc2c1cc1n(c2=O)Cc2c-1nc1cc3c(cc1c2CNc1ccc(N)cc1)OCO3 [Compound 7ab] | 1 nM | 1 nM | 0.4 nM | 0.3 nM | 0.4 nM | 0.4 nM | 2 nM | 1 nM | 
